Data reported in US12129312B2, “Peptide compound, application thereof and composition containing same” (priority 2017, dated 2024).
Where two headings read alike, the source gives them in different places. Square brackets hold non-standard residues; d marks the D form. Peptide text beside a SMILES is read from it. * marks the point of attachment. Hydrocinnamoyl = O=C(CCc1ccccc1)*; Tic = O=C(O)[C@@H]1Cc2ccccc2CN1; NMeL = CN[C@@H](CC(C)C)C(=O)O

Biological target: T1, human Chemokine like receptor 1 (Homo sapiens, UniProt Q99788)
T1 construct: host or cells: U2OS (Tango CMKLR1-bla U2OS)
T1 sequence (Q99788 1-373): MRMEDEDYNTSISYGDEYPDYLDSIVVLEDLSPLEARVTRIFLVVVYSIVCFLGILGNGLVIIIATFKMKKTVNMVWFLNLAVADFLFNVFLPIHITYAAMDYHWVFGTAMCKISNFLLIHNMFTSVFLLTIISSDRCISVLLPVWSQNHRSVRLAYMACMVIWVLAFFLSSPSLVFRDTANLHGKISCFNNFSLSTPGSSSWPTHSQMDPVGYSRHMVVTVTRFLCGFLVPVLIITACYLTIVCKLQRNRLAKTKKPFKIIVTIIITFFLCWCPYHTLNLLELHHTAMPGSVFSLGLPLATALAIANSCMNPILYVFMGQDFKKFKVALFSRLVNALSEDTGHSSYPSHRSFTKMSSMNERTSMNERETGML
Assay: Activation of Tango CMKLR1-bla U2OS cells (beta-lactamase FRET reporter)
Assay type: cell-based
Settings: read-out: EC50
How it was run: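 Agonist mode in Tango CMKLR1-bla U2OS cells, 10000 cells/well seeded overnight, then 10-point 3-fold compound dilutions from 10 mM DMSO stock applied for 4 h at 37 °C, 5% CO2. Beta-lactamase reporter read with CCF4-AM FRET substrate; peptide (D-Tyr)-Phe-Leu-Pro-(D-Ser)-Gln-Phe-(D-Ala)-Tic-Ser served as positive control.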

| EC50 (Tango CMKLR1-bla U2OS cells, 4 hours incubation, four-parameter fit of activation rate) | EC50 (determination by the method of Effect Embodiment 1) | SMILES |
| --- | --- | --- |
| 19 nM |  | CC(C)C[C@H](NC(=O)[C@H](Cc1ccccc1)NC(=O)[C@H](N)Cc1ccc(O)cc1)C(=O)N1CCC[C@H]1C(=O)N[C@H](CO)C(=O)N[C@@H](CCC(N)=O)C(=O)N[C@@H](Cc1ccccc1)C(=O)N[C@H](C)C(=O)N1Cc2ccccc2C[C@H]1C(=O)N[C@@H](CO)C(=O)O [YW-3, (D-Tyr)-Phe-Leu-Pro-(D-Ser)-Gln-Phe-(D-Ala)-Tic-Ser, reference compound] (H-[dY]FLP[dS]QF[dA][Tic]S-OH) |
|  | 2 nM | CC(C)C[C@@H](C(=O)N1CCC[C@H]1C(=O)N[C@H](CO)C(=O)N[C@@H](CCC(N)=O)C(=O)N[C@@H](Cc1ccccc1)C(=O)N[C@H](C)C(=O)N1Cc2ccccc2C[C@H]1C(=O)N[C@@H](CO)C(=O)O)N(C)C(=O)[C@H](Cc1ccccc1)NC(=O)[C@@H](Cc1ccc(O)cc1)NC(=O)CCc1ccccc1 [YW-111, 3-phenylpropanoyl-(D-Tyr)-Phe-(NMe-Leu)-Pro-(D-Ser)-Gln-Phe-(D-Ala)-Tic-Ser-OH] (Hydrocinnamoyl-[dY]F[NMeL]P[dS]QF[dA][Tic]S-OH) |
